In patent publication US20250312352A1, “GLP-1R MODULATING COMPOUNDS” (Gilead Sciences, Inc., priority 2021, published 2025):

Molecular target: T1, GLP-1R (Homo sapiens, UniProt P43220)
T1 construct: host or cells: CHO cells
Assay: GLP-1R activation cAMP assay (Assay 1 or Assay 2)
Type: cell-based
Conditions: cAMP increase in CHO cells stably expressing GLP-1R; compounds run on one of the two cAMP assays
In short: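 CHO cells stably expressing human GLP-1R were incubated 1 h in HBSS/20 mM HEPES/0.1% BSA, then exposed to 10-point agonist dilutions for 30 min at 37 °C. cAMP increase was measured with an HTRF Gs dynamic kit; EC50 from sigmoidal fit of response versus log concentration.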

T1 sequence (P43220 24-463): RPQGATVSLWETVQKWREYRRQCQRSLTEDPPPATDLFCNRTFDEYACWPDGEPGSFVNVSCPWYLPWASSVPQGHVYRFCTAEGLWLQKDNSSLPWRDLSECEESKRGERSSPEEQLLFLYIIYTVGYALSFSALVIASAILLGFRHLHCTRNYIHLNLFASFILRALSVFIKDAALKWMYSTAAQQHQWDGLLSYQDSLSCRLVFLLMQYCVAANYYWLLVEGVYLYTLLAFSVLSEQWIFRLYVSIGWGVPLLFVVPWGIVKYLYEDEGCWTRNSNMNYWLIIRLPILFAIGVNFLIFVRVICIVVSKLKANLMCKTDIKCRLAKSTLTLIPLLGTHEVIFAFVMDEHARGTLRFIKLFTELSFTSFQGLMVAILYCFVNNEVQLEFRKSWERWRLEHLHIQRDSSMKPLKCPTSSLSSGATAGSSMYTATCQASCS

Compound `Cn1cc(C#Cc2ccc(COc3cccc(-c4cc(F)c(Cc5nc6ccc(C(=O)O)cc6n5C[C@@H]5CCO5)cc4F)n3)c(F)n2)cn1` [Example 362, (S)-2-(2,5-difluoro-4-(6-((2-fluoro-6-((1-methyl-1H-pyrazol-4-yl)ethynyl)pyridin-3-yl)methoxy)pyridin-2-yl)benzyl)-1-(oxetan-2-ylmethyl)-1H-benzo[d]imidazole-6-carboxylic acid] has an EC50 of 0.33 nM.

In the case of `CCOc1nc(C)c(COc2cccc(-c3cc(F)c(Cc4nc5ccc(C(=O)O)cc5n4C[C@@H]4CCO4)cc3F)n2)s1` [Example 349, (S)-2-(4-(6-((2-ethoxy-4-methylthiazol-5-yl)methoxy)pyridin-2-yl)-2,5-difluorobenzyl)-1-(oxetan-2-ylmethyl)-1H-benzo[d]imidazole-6-carboxylic acid], the EC50 is reported as 0.323 nM.

`O=C(O)c1ccc2nc(Cc3cc(F)c(-c4cccc(OCc5cc(C(F)(F)F)ns5)n4)cc3F)n(C[C@@H]3CCO3)c2c1` [Example 81, (S)-2-(2,5-difluoro-4-(6-((3-(trifluoromethyl)isothiazol-5-yl)methoxy)pyridin-2-yl)benzyl)-1-(oxetan-2-ylmethyl)-1H-benzo[d]imidazole-6-carboxylic acid] gave an EC50 of 0.81 nM.

In the case of `O=C(O)c1ccc2nc(Cc3cc(F)c(-c4cccc(OCc5nnc(C(F)F)s5)n4)cc3F)n(C[C@@H]3CCO3)c2c1` [Example 15, (S)-2-(4-(6-((5-(difluoromethyl)-1,3,4-thiadiazol-2-yl)methoxy)pyridin-2-yl)-2,5-difluorobenzyl)-1-(oxetan-2-ylmethyl)-1H-benzo[d]imidazole-6-carboxylic acid], the EC50 is reported as 0.96 nM.

For `NC(=O)c1ccc(COc2cccc(-c3cc(F)c(Cc4nc5ccc(C(=O)O)cc5n4C[C@@H]4CCO4)cc3F)n2)nc1` [Example 248, 2-[[4-[6-[(5-carbamoyl-2-pyridyl)methoxy]-2-pyridyl]-2,5-difluoro-phenyl]methyl]-3-[[(2S)-oxetan-2-yl]methyl]benzimidazole-5-carboxylic acid], the EC50 was 5.61 nM.

`CN1CC(n2cc(-c3ccc(COc4cccc(-c5cc(F)c(Cc6nc7ccc(C(=O)O)cc7n6C[C@@H]6CCO6)cc5F)n4)c(F)c3)nn2)C1` [Example 220, (S)-2-(2,5-difluoro-4-(6-((2-fluoro-4-(1-(1-methylazetidin-3-yl)-1H-1,2,3-triazol-4-yl)benzyl)oxy)pyridin-2-yl)benzyl)-1-(oxetan-2-ylmethyl)-1H-benzo[d]imidazole-6-carboxylic acid] was tested, and the EC50 was 2.08 nM.

In the case of `Cn1cncc1C#Cc1ccc(COc2cccc(-c3cc(F)c(Cc4nc5c(F)cc(C(=O)O)cc5n4C[C@@H]4CCO4)cc3F)n2)c(F)c1` [Example 395, (S)-2-(2,5-difluoro-4-(6-((2-fluoro-4-((1-methyl-1H-imidazol-5-yl)ethynyl)benzyl)oxy)pyridin-2-yl)benzyl)-4-fluoro-1-(oxetan-2-ylmethyl)-1H-benzo[d]imidazole-6-carboxylic acid], the EC50 is reported as 0.197 nM.

`O=C(O)c1ccc2nc(Cc3cc(F)c(-c4cccc(OCc5ccn(-c6ccccc6)n5)n4)cc3F)n(C[C@@H]3CCO3)c2c1` [Example 120, (S)-2-(2,5-difluoro-4-(6-((1-phenyl-1H-pyrazol-3-yl)methoxy)pyridin-2-yl)benzyl)-1-(oxetan-2-ylmethyl)-1H-benzo[d]imidazole-6-carboxylic acid] showed an EC50 of 2.84 nM.

`CC1(C)COC[C@@H]1n1c(Cc2cc(F)c(-c3cccc(OCc4ccc(C(=O)NC5(C#N)CC5)nc4)n3)cc2F)nc2ccc(C(=O)O)cc21` [Example 202, (R)-2-(4-(6-((6-((1-cyanocyclopropyl)carbamoyl)pyridin-3-yl)methoxy)pyridin-2-yl)-2,5-difluorobenzyl)-1-(4,4-dimethyltetrahydrofuran-3-yl)-1H-benzo[d]imidazole-6-carboxylic acid] gave an EC50 of 0.58 nM.

For `O=C(O)c1ccc2nc(Cc3cc(F)c(-c4cccc(OCc5nnc(OCC(F)F)s5)n4)cc3F)n(C[C@@H]3CCO3)c2c1` [Example 352, (S)-2-(4-(6-((5-(2,2-difluoroethoxy)-1,3,4-thiadiazol-2-yl)methoxy)pyridin-2-yl)-2,5-difluorobenzyl)-1-(oxetan-2-ylmethyl)-1H-benzo[d]imidazole-6-carboxylic acid], the EC50 was 0.52 nM.

In the case of `O=C(O)c1ccc2nc(Cc3cc(F)c(-c4cccc(OCc5ncc(-c6cnn(C7COC7)c6)s5)n4)cc3F)n(C[C@@H]3CCO3)c2c1` [Example 80, (S)-2-(2,5-difluoro-4-(6-((5-(1-(oxetan-3-yl)-1H-pyrazol-4-yl)thiazol-2-yl)methoxy)pyridin-2-yl)benzyl)-1-(oxetan-2-ylmethyl)-1H-benzo[d]imidazole-6-carboxylic acid], the EC50 is reported as 0.19 nM.

With `O=C(O)c1ccc2nc(Cc3cc(F)c(-c4cccc(OCc5ccc(C(F)(F)F)o5)n4)cc3F)n(C[C@@H]3CCO3)c2c1` [Example 61, (S)-2-(2,5-difluoro-4-(6-((5-(trifluoromethyl)furan-2-yl)methoxy)pyridin-2-yl)benzyl)-1-(oxetan-2-ylmethyl)-1H-benzo[d]imidazole-6-carboxylic acid] the EC50 was 0.96 nM.

`COc1nnc(COc2cccc(-c3cc(F)c(Cc4nc5c(F)cc(C(=O)O)cc5n4[C@@H]4COCC4(C)C)c(F)c3)n2)s1` [Example 439, (S)-2-(2,6-difluoro-4-(6-((5-methoxy-1,3,4-thiadiazol-2-yl)methoxy)pyridin-2-yl)benzyl)-1-(4,4-dimethyltetrahydrofuran-3-yl)-4-fluoro-1H-benzo[d]imidazole-6-carboxylic acid] gave an EC50 of 0.397 nM.

`O=C(O)c1ccc2nc(Cc3cc(F)c(-c4cccc(OCc5ccc(-c6cn(C7CC7)nn6)cc5F)n4)cc3F)n(C[C@@H]3CCO3)c2c1` [Example 214, (S)-2-(4-(6-((4-(1-cyclopropyl-1H-1,2,3-triazol-4-yl)-2-fluorobenzyl)oxy)pyridin-2-yl)-2,5-difluorobenzyl)-1-(oxetan-2-ylmethyl)-1H-benzo[d]imidazole-6-carboxylic acid] was tested, and the EC50 was 0.08 nM.

`COc1nnc(COc2nc(-c3cc(F)c(Cc4nc5ccc(C(=O)O)cc5n4[C@@H]4COCC4(C)C)cc3C)ccc2F)s1` [Example 258, (S)-1-(4,4-dimethyltetrahydrofuran-3-yl)-2-(2-fluoro-4-(5-fluoro-6-((5-methoxy-1,3,4-thiadiazol-2-yl)methoxy)pyridin-2-yl)-5-methylbenzyl)-1H-benzo[d]imidazole-6-carboxylic acid] gave an EC50 of 0.483 nM.

`O=C(O)c1ccc2nc(Cc3cc(F)c(-c4cccc(OCc5ncc(-c6cncnc6)s5)n4)cc3F)n(C[C@@H]3CCO3)c2c1` [Example 105, (S)-2-(2,5-difluoro-4-(6-((5-(pyrimidin-5-yl)thiazol-2-yl)methoxy)pyridin-2-yl)benzyl)-1-(oxetan-2-ylmethyl)-1H-benzo[d]imidazole-6-carboxylic acid] gave an EC50 of 0.14 nM.

With `O=C(O)c1ccc2nc(Cc3cc(F)c(-c4cccc(OCc5cn6ccncc6n5)n4)cc3F)n(C[C@@H]3CCO3)c2c1` [Example 33, (S)-2-(2,5-difluoro-4-(6-(imidazo[1,2-a]pyrazin-2-ylmethoxy)pyridin-2-yl)benzyl)-1-(oxetan-2-ylmethyl)-1H-benzo[d]imidazole-6-carboxylic acid] the EC50 was 1.75 nM.

`Cc1nc(COc2cccc(-c3cc(F)c(Cc4nc5ccc(C(=O)O)cc5n4C[C@@H]4CCO4)cc3F)n2)no1` [Example 17, (S)-2-(2,5-difluoro-4-(6-((5-methyl-1,2,4-oxadiazol-3-yl)methoxy)pyridin-2-yl)benzyl)-1-(oxetan-2-ylmethyl)-1H-benzo[d]imidazole-6-carboxylic acid] was tested, and the EC50 was 7 nM.

`Cc1nc(COc2cccc(-c3cc(F)c(Cc4nc5ccc(C(=O)O)cc5n4C[C@@H]4CCO4)cc3F)n2)sc1Br` [Example 27, (S)-2-(4-(6-((5-bromo-4-methylthiazol-2-yl)methoxy)pyridin-2-yl)-2,5-difluorobenzyl)-1-(oxetan-2-ylmethyl)-1H-benzo[d]imidazole-6-carboxylic acid] was tested, and the EC50 was 0.08 nM.

In the case of `Cn1cncc1COc1cccc(-c2cc(F)c(Cc3nc4ccc(C(=O)O)cc4n3C[C@@H]3CCO3)cc2F)n1` [Example 178, (S)-2-(2,5-difluoro-4-(6-((1-methyl-1H-imidazol-5-yl)methoxy)pyridin-2-yl)benzyl)-1-(oxetan-2-ylmethyl)-1H-benzo[d]imidazole-6-carboxylic acid], the EC50 is reported as 23.6 nM.

`Cc1ncc(C#Cc2ccc(COc3cccc(-c4cc(F)c(Cc5nc6ccc(C(=O)O)cc6n5C[C@@H]5CCO5)cc4F)n3)c(F)c2)n1C` [Example 149, (S)-2-(4-(6-((4-((1,2-dimethyl-1H-imidazol-5-yl)ethynyl)-2-fluorobenzyl)oxy)pyridin-2-yl)-2,5-difluorobenzyl)-1-(oxetan-2-ylmethyl)-1H-benzo[d]imidazole-6-carboxylic acid] showed an EC50 of 0.29 nM.

`O=C(O)c1ccc2nc(Cc3cc(F)c(-c4cccc(OCc5ncc(-c6cnsc6)s5)n4)cc3F)n(C[C@@H]3CCO3)c2c1` [Example 95, (S)-2-(2,5-difluoro-4-(6-((5-(isothiazol-4-yl)thiazol-2-yl)methoxy)pyridin-2-yl)benzyl)-1-(oxetan-2-ylmethyl)-1H-benzo[d]imidazole-6-carboxylic acid] was tested, and the EC50 was 0.08 nM.

`CNC(=O)c1cc(Cl)c(COc2cccc(-c3cc(F)c(Cc4nc5c(F)cc(C(=O)O)cc5n4C[C@@H](C)OC)cc3F)n2)cn1` [Example 393, (R)-2-(4-(6-((4-chloro-6-(methylcarbamoyl)pyridin-3-yl)methoxy)pyridin-2-yl)-2,5-difluorobenzyl)-4-fluoro-1-(2-methoxypropyl)-1H-benzo[d]imidazole-6-carboxylic acid] was tested, and the EC50 was 0.777 nM.

`Cc1nnc(COc2nc(-c3cc(F)c(Cc4nc5c(F)cc(C(=O)O)cc5n4C[C@@H]4CCO4)cc3F)ccc2F)s1` [Example 297, (S)-2-(2,5-difluoro-4-(5-fluoro-6-((5-methyl-1,3,4-thiadiazol-2-yl)methoxy)pyridin-2-yl)benzyl)-4-fluoro-1-(oxetan-2-ylmethyl)-1H-benzo[d]imidazole-6-carboxylic acid] gave an EC50 of 0.508 nM.
